The text below walks through data of article PMC9896555, “Cyclic Acetals as Novel Long-Lasting Mosquito Repellents” (Journal of Agricultural and Food Chemistry, 2023).

Series [1] concerns Aedes albopictus. Put plainly: Effective dose / protection efficacy, human-bait technique. In kind it is in vivo. The note with it: for pest or weed control at 0.081 µg/cm2, 0.081 µg/cm2 / pest or weed control at 0.17 µg/cm2, 0.17 µg/cm2 / pest or weed control at 0.33 µg/cm2, 0.33 µg/cm2 / pest or weed control at 0.5 µg/cm2, 0.5 µg/cm2 / pest or weed control at 0.83 µg/cm2, 0.83 µg/cm2 / pest or weed control at 1.7 µg/cm2, 1.7 µg/cm2 / pest or weed control at 8.3 µg/cm2, 8.3 µg/cm2 / pest or weed control at 16.7 µg/cm2, 16.7 µg/cm2 / pest or weed control at 83.3 µg/cm2, 83.3 µg/cm2: Aedes albopictus, topical, read-out: Protection efficacy PE%; for 100% PE: Table S1; for Protection efficacy (dose to obtain complete protection (100%) from bite attempts): applied on skin of volunteers, 3 min exposure. As to the method: The repellence of DEET, Icaridin (both supplied by Istituto Biochimico VEBI s.r.l.), acetals, and the synthesized hydroxyacetals was evaluated againstAedes albopictususing the human-bait technique (to simulate the condition of human skin on which repellents will be applied).[22]A. albopictuswas reared and tested at 26 ± 2 °C, ≥60 ± 10% relative humidity (RH), and at 14:10 h light/dark photoperiod, within Plexiglas cylindrical laboratory cages (35 cm diameter, 60 cm length) with one end closed by a net. During the tests, cages contained ≈150 nulliparous, 4–7 day-old, nonblood-fed females. For each compound to be tested, up to six volunteers participated in the trial.
The study was approved by the Regional Ethics Committee for Clinical Trials of Tuscany Region with the registered number 20383. Volunteers agreed to take part in the experiments following informed consent; only volunteers non-allergic to mosquito bites participated in the trials. On the day of the bioassay, they had no contact with lotions, perfumes, oils, or perfumed soaps. They wore latex surgical gloves, in which a dorsal square area of 30 cm^2 was cut open. Mosquito-exposed skin was treated with 50 μL of ethanol, as the negative hand control. The other hand was treated with 50 μL of the tested compounds in ethanol solution (dosages corresponding to 0.081, 0.17, 0.33, 0.5, 0.83, 1.7, 8.3, 16.7, and 83.3 μg/cm^2). Both hands were presented in the same test cage. The number of probing mosquitoes in a 3 min exposure period was recorded. During each test, the control and the treated hand were presented interchanged to verify the mosquitoes’ readiness to bite. Trials were considered valid only if at least 30 mosquitoes performed probing behavior on the control hand before each repellent dosage was tested. The protection efficacy (PE %) obtained from all replicates was calculated, according to the WHO guidelines[31] using this formula [drawing 1]
To evaluate the protection efficacy, volunteers applied increasing doses of the compounds to the skin on the back of their hands (30 cm^2, while the rest was covered with a rubber glove) and counted the number of mosquitoes attempting to bite; the solvent only was used on the control hand. The protection (percentage of repelled mosquitoes) was calculated as reported in the Material and Methods section.

Series [2] relates to Aedes albopictus. In words: Protection time at 0.17 mg/cm2, human-bait technique. The format is in vivo. To be noted: for pest or weed control at 0.17 mg/cm2, 0.17 mg/cm2: Aedes albopictus, topical, read-out: Protection time PE%; for Average PT >95% (% coefficient of variation) / Estimated 100% PT (complete protection time, mean±SE): at the dose of 0.17mg/cm2; for Protection time (95% protection): dose of 0.17 mg/cm^2, tests ended after 8 h; for Estimated 100% PT (complete protection time, mean±SE): Kaplan–Meier estimate. Here is the method: To evaluate the protection time of derivatives, the PE % was measured with 100 μL of a 5% ethanol solution, corresponding to 0.17 mg/cm^2 of exposed skin, under the same laboratory conditions. Mosquito-exposed skin was treated with 100 μL of ethanol, as the negative hand control. For each volunteer (up to 8), the test was performed every hour, up to 8 h from the application. The protection time of DEET and Icaridin was measured under the same conditions. Since these trials were run in parallel with those aimed to profile the cytotoxicity of the compounds (paragraph 2.6), we interrupted the experiments for those compounds showing to have higher cytotoxicity than Icaridin and DEET as soon as the results were available. For this reason, the number of volunteers differs among the compounds.
The average time until protection which was higher than 95% protection time was considered for each compound. Moreover, for the compounds tested on at least three volunteers, the complete (100%) protection time was also estimated (SPSS 28.01.0) using the Kaplan–Meier survivor function procedure.[22]

The subject of a further series is HaCaT cells. In words: Cytotoxicity on human keratinocytes (MTS). The format is cell-based. To be noted: 82 μg/mL, 24 h. As to the method:
HaCaT cells were cultured in 5% CO2 at 37 °C in Dulbecco’s modified Eagle’s medium (DMEM), supplemented with 10% fetal bovine serum (FBS), 1% L-glutamine ([…]), and 1% penicillin–streptomycin (Thermo Fisher Scientific, Rodano, Milan, Italy). […] Experiments were performed in triplicate.

Where two headings read alike, the source gives them in different places.

For `CCCCC1(CCCC)OCC(CC)(CO)CO1` [16c], in the series on Aedes albopictus [1] (0.081 µg/cm2), the pest or weed control at 0.081 µg/cm2, 0.081 µg/cm2 was found to be 6.06%. Besides, the pest or weed control at 0.17 µg/cm2, 0.17 µg/cm2 in the series with Aedes albopictus [1] (0.17 µg/cm2) is 59.5%. For the same molecule, in the series with Aedes albopictus [1] (0.33 µg/cm2), the pest or weed control at 0.33 µg/cm2, 0.33 µg/cm2 came out at 8.39%. Also, in the series on Aedes albopictus [1] (0.5 µg/cm2), the pest or weed control at 0.5 µg/cm2, 0.5 µg/cm2 was 36.2%. The pest or weed control at 0.83 µg/cm2, 0.83 µg/cm2 with Aedes albopictus [1] (0.83 µg/cm2) was found to be 52.9%. In the series on Aedes albopictus [1] (1.7 µg/cm2), the pest or weed control at 1.7 µg/cm2, 1.7 µg/cm2 was 95.5%. The pest or weed control at 8.3 µg/cm2, 8.3 µg/cm2 in the series on Aedes albopictus [1] (8.3 µg/cm2) amounted to 100%. For the same molecule, the pest or weed control at 16.7 µg/cm2, 16.7 µg/cm2 with Aedes albopictus [1] (16.7 µg/cm2) stood at 100%. The pest or weed control at 83.3 µg/cm2, 83.3 µg/cm2 in the series on Aedes albopictus [1] (83.3 µg/cm2) was 100%. For the same molecule, the “100% PE” value in the series on Aedes albopictus [1] is recorded as 1.7 µg/cm2. For the same molecule, the “Protection efficacy (dose to obtain complete protection (100%) from bite attempts)” value with Aedes albopictus [1] is 8.3 μg/cm^2. Moreover, the pest or weed control at 0.17 mg/cm2, 0.17 mg/cm2 in the series on Aedes albopictus [2] (0.17mg/cm2, 1 h) came to 99%; in the series with Aedes albopictus [2] (0.17mg/cm2, 2 h), 96.3%; with Aedes albopictus [2] (0.17mg/cm2, 3 h), 97.6%; with Aedes albopictus [2] (0.17mg/cm2, 4 h), 97.1%; with Aedes albopictus [2] (0.17mg/cm2, 5 h), 94.8%; with Aedes albopictus [2] (0.17mg/cm2, 6 h), 95.4%. The pest or weed control at 0.17 mg/cm2, 0.17 mg/cm2 came out at 95.1% in the series with Aedes albopictus [2] (0.17mg/cm2, 7 h) and 99% with Aedes albopictus [2] (0.17mg/cm2, 8 h). For the same molecule, in the series with Aedes albopictus [2], the “Average PT >95% (% coefficient of variation)” value is 480 (1.4) min. The “Protection time (95% protection)” value in the series with Aedes albopictus [2] worked out at 8 h. The same molecule returned a survival of keratocytes in the series on HaCaT cells of more than 88%.
As for `CCCCCCCCCC1OCC(CO)O1` (mixture of isomers) [18a], the “Protection efficacy PE%” value is listed as 22.98% with Aedes albopictus [1] (0.081 µg/cm2); 41.74% in the series with Aedes albopictus [1] (0.17 µg/cm2); 40.93% with Aedes albopictus [1] (0.33 µg/cm2); 77.98% in the series with Aedes albopictus [1] (0.5 µg/cm2); 69.25% with Aedes albopictus [1] (0.83 µg/cm2); 87.67% in the series with Aedes albopictus [1] (1.7 µg/cm2). Also, the “Protection efficacy PE%” value stood at 95.83% in the series on Aedes albopictus [1] (8.3 µg/cm2), 100% with Aedes albopictus [1] (16.7 µg/cm2) and 100% in the series with Aedes albopictus [1] (83.3 µg/cm2). Moreover, the “Protection efficacy (dose to obtain complete protection (100%) from bite attempts)” value with Aedes albopictus [1] is listed as 16.7 μg/cm^2. Further, the “Protection time PE%” value is 100% with Aedes albopictus [2] (0.17mg/cm2, 0 min); 97.63% in the series with Aedes albopictus [2] (0.17mg/cm2, 1 h); 100% in the series with Aedes albopictus [2] (0.17mg/cm2, 2 h); 98.31% in the series with Aedes albopictus [2] (0.17mg/cm2, 3 h); 99.28% in the series with Aedes albopictus [2] (0.17mg/cm2, 4 h); 99.23% in the series with Aedes albopictus [2] (0.17mg/cm2, 5 h). Besides, the “Protection time PE%” value is 97.68% in the series with Aedes albopictus [2] (0.17mg/cm2, 6 h); 92.86% in the series with Aedes albopictus [2] (0.17mg/cm2, 7 h); 95.18% in the series on Aedes albopictus [2] (0.17mg/cm2, 8 h). In the series on Aedes albopictus [2], the “Average PT >95% (% coefficient of variation)” value is given as 420 (2.1) min. The “Estimated 100% PT (complete protection time, mean±SE)” value in the series on Aedes albopictus [2] is 190 ± 50 min.
Turning to `CCCCCC1(CCCCC)OCC(CO)O1` (racemic) [23a], the “Protection efficacy PE%” value in the series with Aedes albopictus [1] (0.081 µg/cm2) worked out at 33.33%; in the series on Aedes albopictus [1] (0.17 µg/cm2), 54.16%; with Aedes albopictus [1] (0.33 µg/cm2), 97.01%; with Aedes albopictus [1] (0.5 µg/cm2), 76.81%; with Aedes albopictus [1] (0.83 µg/cm2), 76.67%; in the series on Aedes albopictus [1] (1.7 µg/cm2) it was 93.75%. Also, the results for the “Protection efficacy PE%” value with Aedes albopictus [1] (8.3 µg/cm2), in the series on Aedes albopictus [1] (16.7 µg/cm2) and with Aedes albopictus [1] (83.3 µg/cm2) were 88.23%, 98.04% and 100%, respectively. Also, in the series with Aedes albopictus [1], the “100% PE” value stood at 83.3 µg/cm2. Also, the “Protection time PE%” value in the series with Aedes albopictus [2] (0.17mg/cm2, 0 min) worked out at 100%; with Aedes albopictus [2] (0.17mg/cm2, 1 h), 99.62%; in the series with Aedes albopictus [2] (0.17mg/cm2, 2 h) it was 98.79%; in the series with Aedes albopictus [2] (0.17mg/cm2, 3 h) it was 97.92%; with Aedes albopictus [2] (0.17mg/cm2, 4 h), 98.99%; with Aedes albopictus [2] (0.17mg/cm2, 5 h) it was 88.68%. The “Protection time PE%” value in the series on Aedes albopictus [2] (0.17mg/cm2, 6 h) amounted to 97.92%; in the series on Aedes albopictus [2] (0.17mg/cm2, 7 h), 92.53%; in the series with Aedes albopictus [2] (0.17mg/cm2, 8 h), 92.80%. In addition, the “Average PT >95% (% coefficient of variation)” value in the series with Aedes albopictus [2] is 360 (4.8) min. Also, the “Estimated 100% PT (complete protection time, mean±SE)” value in the series on Aedes albopictus [2] is 240 ± 65 min.
Consider `CC1(CO)COC2(CCCCC2)OC1` [6b], for which the pest or weed control at 0.081 µg/cm2, 0.081 µg/cm2 with Aedes albopictus [1] (0.081 µg/cm2) was 48.4%. Besides, in the series with Aedes albopictus [1] (0.17 µg/cm2), the pest or weed control at 0.17 µg/cm2, 0.17 µg/cm2 stood at 62.7%. Moreover, the pest or weed control at 0.33 µg/cm2, 0.33 µg/cm2 in the series with Aedes albopictus [1] (0.33 µg/cm2) is 77%. Besides, the pest or weed control at 0.5 µg/cm2, 0.5 µg/cm2 with Aedes albopictus [1] (0.5 µg/cm2) came to 64.9%. In addition, in the series on Aedes albopictus [1] (0.83 µg/cm2), the pest or weed control at 0.83 µg/cm2, 0.83 µg/cm2 is 100%. Also, in the series with Aedes albopictus [1] (1.7 µg/cm2), the pest or weed control at 1.7 µg/cm2, 1.7 µg/cm2 came to 100%. The pest or weed control at 8.3 µg/cm2, 8.3 µg/cm2 in the series with Aedes albopictus [1] (8.3 µg/cm2) stood at 100%. Moreover, in the series with Aedes albopictus [1] (16.7 µg/cm2), the pest or weed control at 16.7 µg/cm2, 16.7 µg/cm2 is 100%. Further, the pest or weed control at 83.3 µg/cm2, 83.3 µg/cm2 with Aedes albopictus [1] (83.3 µg/cm2) was 100%. Further, the “100% PE” value in the series on Aedes albopictus [1] is 0.83 µg/cm2. Moreover, the “Protection efficacy (dose to obtain complete protection (100%) from bite attempts)” value in the series with Aedes albopictus [1] is given as 0.83 μg/cm^2. In addition, the pest or weed control at 0.17 mg/cm2, 0.17 mg/cm2 was found to be 100% in the series on Aedes albopictus [2] (0.17mg/cm2, 1 h); 99.1% in the series with Aedes albopictus [2] (0.17mg/cm2, 2 h); 100% in the series on Aedes albopictus [2] (0.17mg/cm2, 3 h); 100% in the series with Aedes albopictus [2] (0.17mg/cm2, 4 h); 99.4% with Aedes albopictus [2] (0.17mg/cm2, 5 h); 90.8% in the series on Aedes albopictus [2] (0.17mg/cm2, 6 h). The pest or weed control at 0.17 mg/cm2, 0.17 mg/cm2 in the series on Aedes albopictus [2] (0.17mg/cm2, 7 h) was 97.3%; with Aedes albopictus [2] (0.17mg/cm2, 8 h), 95.1%. Also, in the series on Aedes albopictus [2], the “Average PT >95% (% coefficient of variation)” value is 480 (3.3) min. The “Estimated 100% PT (complete protection time, mean±SE)” value with Aedes albopictus [2] is 375 ± 89 min. Further, the “Protection time (95% protection)” value in the series on Aedes albopictus [2] is recorded as 8 h. Also, in the series with HaCaT cells, the survival of keratocytes was more than 88%.
